In series [1] the test system is patients with Alzheimer's disease. The note with it: clinical trials; rofecoxib at 25 mg daily; cited from earlier work.
For series [2], the system named is patients having mild cognitive impairment. The note with it: cited from earlier work.
The target of series [3] is cytochrome P450 (CYP) 2C9 (Homo sapiens, UniProt P11712). The note with it: cited from earlier work.
The subject of series [4] is COX. Conditions: cited from earlier work.
The test system of series [5] is Aβ42. Conditions: CHO cells; cited from earlier work.
The test system of series [6] is Aβ42. Conditions: transgenic mouse model; cited from earlier work.
The nature of series [7]: Phase I pharmacokinetic study of R-flurbiprofen in plasma, one compartment model. The series is classed as in vivo, human. Conditions: oral capsules, plasma Study Day 21, mean value one compartment model. As to the method: The study is conducted as a double-blind, placebo-controlled, sequential, ascending dose level, multiple dose study, including men and women. Sixteen subjects are assigned to each of three sequential cohorts: 200 mg BID, 400 mg BID, and 800 mg BID of R-flurbiprofen, each with matched placebo BID. Each cohort contains a 3:1 ratio of assignment to active drug (n=12) versus placebo (n=4), resulting in 4 treatment groups of 12 subjects each after combining the 3 placebo groups. The study is balanced by site and stratified by gender. Subjects receive either R-flurbiprofen at the specified dose or a matched placebo orally for 21 days. Blood and urine samples are collected for laboratory safety data at Study Day 1, Study Day 21, and End of Study (30-Day Follow Up) visit. Blood and CSF are collected for pharmacokinetic and biomarker measures at Study Day 1 and after 21 days of treatment with the study drug.
Subjects are instructed to take 1 capsule from Bottle A and 1 capsule from Bottle B 2 times per day (BID) for 20 days; Bottles A and B may contain R-flurbiprofen or placebo. The intraday dosing interval is approximately 12 hours, and the study drug is taken at approximately the same time each day. After 20 days (i.e., on Study Day 21), study participants undergo a pharmacokinetic study, as described below. Daily doses for the 4 groups of the study are: • 400 mg R-flurbiprofen (given as one 200 mg capsule and 1 placebo capsule BID) • 800 mg R-flurbiprofen (given as one 400 mg capsule and 1 placebo capsule BID) • 1600 mg R-flurbiprofen (given as two 400 mg capsules BID)
Blood and urine samples are collected on Study Day 21 from fasted participants for clinical chemistries, hematology, coagulation parameters, and urinalysis. Blood samples are collected on Study Day 21 at 0.5, 1, 2, 4, and 6 hours, and, if possible, 8 and 24 hours, after administration of the final dose of study drug. The total amount of blood collected for the pharmacokinetic analyses is approximately 64 mL. All blood samples for PK/PD analysis are analyzed for both R-flurbiprofen and S-flurbiprofen, and the extent of bioinversion of R-flurbiprofen to S-flurbiprofen is assessed.
The plasma concentration time profile of R-flurbiprofen is analyzed using nonlinear modeling, and preliminary estimates of PK parameters are obtained. Estimates include individual and mean half-life, clearance, AUC, Cmax, Tmax, and average steady-state concentration. Cerebrospinal fluid levels of R-flurbiprofen are summarized. If plasma concentrations over time are similar to those found in other patient populations, Bayesian estimation is used to estimate population PK parameters, allowing the PK parameters observed in this population to be evaluated in the context of data observed in additional clinical studies. Estimates include the mean and individual PK parameters as well as the magnitude of intersubject variability.
A clinical trial was conducted as described in Example 5, above. Pharmacokinetic parameters were determined using WinNonlin® Version 4.0 (Pharsight, Mountain View, Calif.). A one compartment model with first order elimination and uniform weighting was used with WinNonlin estimated parameter boundaries for absorption rate (K01), elimination rate (K10) and volume (V_F). Individual and mean value parameters derived include K10 half-life, Cmax (maximum plasma concentration), Tmax (time of maximum plasma concentration), AUC (area under the plasma time and concentration curve), and Cl_F (clearance). The model calculates the concentration at time T as follows: C(T)=D*K01/V/(K01−K10)*(EXP(−K10*T)−EXP(−K01*T)) (1), where C(T) is concentration at time T; D=dose; V is volume; V_F is volume of distribution over systemic availability; K01 is the absorption rate constant; K10 is elimination rate constant; CL_F is clearance over systemic availability; and T is time. […]

Setting [8] is: 200 mg BID group, modeled as single 200 mg dose.
The mark [9] stands for this setting: 400 mg BID group, modeled as single 400 mg dose.
[10] abbreviates: 800 mg BID group, modeled as single 800 mg dose.

Read-outs that look alike come from different tables or passages of the source.

Chain of cytochrome P450 (CYP) 2C9 (P11712 whole entry): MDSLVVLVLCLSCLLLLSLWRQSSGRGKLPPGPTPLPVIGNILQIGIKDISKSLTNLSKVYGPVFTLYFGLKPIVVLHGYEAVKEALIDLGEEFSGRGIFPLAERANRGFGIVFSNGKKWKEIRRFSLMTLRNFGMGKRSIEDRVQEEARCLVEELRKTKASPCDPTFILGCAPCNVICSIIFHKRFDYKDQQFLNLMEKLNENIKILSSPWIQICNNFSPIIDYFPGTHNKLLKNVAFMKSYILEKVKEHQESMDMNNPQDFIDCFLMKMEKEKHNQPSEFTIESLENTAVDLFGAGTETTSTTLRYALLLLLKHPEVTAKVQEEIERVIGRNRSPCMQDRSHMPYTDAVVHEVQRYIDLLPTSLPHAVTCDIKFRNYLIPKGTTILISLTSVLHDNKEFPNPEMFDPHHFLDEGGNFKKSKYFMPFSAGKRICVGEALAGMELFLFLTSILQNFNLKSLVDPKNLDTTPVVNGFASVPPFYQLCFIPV

Consider `COc1ccc2cc([C@H](C)C(=O)O)ccc2c1` [Naproxen], for which the “efficacy for treating AD” value in series [1] is recorded as “failed to show efficacy”.

In the case of `CS(=O)(=O)c1ccc(C2=C(c3ccccc3)C(=O)OC2)cc1` [rofecoxib], in series [2] (large prevention clinical trial), the “prevention of the development of Alzheimer's disease” value is given as “failed to prevent the development of Alzheimer's disease”. In series [2] (large prevention trial, 4.5% for placebo), the “patients who developed AD” value is on record as 6.4%. Further, the “efficacy for treating AD” value in series [1] is listed as “failed to show efficacy”.

`CC(C(=O)O)c1ccc(-c2ccccc2)c(F)c1` (racemic) [flurbiprofen, (R,S)-(2-fluoro-biphenylyl)propionic acid, reference compound]: in series [3], the “inhibition of the metabolism of drugs that are substrates of CYP2C9” value is reported as “inhibit the metabolism”.

In general, AUC refers to the area under the concentration-time curve, a measure of exposure. By Tmax is commonly meant the time at which the peak concentration occurs. Consider `C[C@@H](C(=O)O)c1ccc(-c2ccccc2)c(F)c1` [R-flurbiprofen], for which, in series [4], the “inhibition of COX activity” value is recorded as “negligibly inhibits”. Moreover, the “effect on Aβ42” value in series [5] and in series [6] was “lower Aβ42” in each case. For the same compound, the “inhibition of the metabolism of drugs that are substrates of CYP2C9” value in series [3] was “inhibit the metabolism”. Further, the exposure (AUC) in series [7] (setting [8]) was 246 µg·h/mL; in series [7] (setting [9]), 577 µg·h/mL; in series [7] (setting [10]), 487 µg·h/mL. Also, the CL_F was 812 mL/h in series [7] (setting [8]), 693 mL/h in series [7] (setting [9]) and 1642 mL/h in series [7] (setting [10]). Further, the K10_HL in series [7] (setting [8]) turned out to be 6.56 h; in series [7] (setting [9]), 8.04 h; in series [7] (setting [10]), 5.90 h. For the same compound, the values for the Tmax in series [7] (setting [8]), in series [7] (setting [9]) and in series [7] (setting [10]) were 2.28 h, 1.58 h and 0.86 h, respectively.

Source of the values: patent publication US20070293576A1, “Pharmaceutical Methods, Dosing Regimes And Dosage Forms For The Treatment Of Alzheimer's Disease” (Myriad Genetics, Incorporated, priority 2003, published 2007).
